Structures are written as SMILES. Bounds are passed on as bounds.

Results on 28 molecules are retold here after patent US11661426B2, “Imidazole-containing inhibitors of ALK2 kinase” (BioCryst Pharmaceuticals, Inc., priority 2017, dated 2023).

ALK2, sequence (Q04771 21-509): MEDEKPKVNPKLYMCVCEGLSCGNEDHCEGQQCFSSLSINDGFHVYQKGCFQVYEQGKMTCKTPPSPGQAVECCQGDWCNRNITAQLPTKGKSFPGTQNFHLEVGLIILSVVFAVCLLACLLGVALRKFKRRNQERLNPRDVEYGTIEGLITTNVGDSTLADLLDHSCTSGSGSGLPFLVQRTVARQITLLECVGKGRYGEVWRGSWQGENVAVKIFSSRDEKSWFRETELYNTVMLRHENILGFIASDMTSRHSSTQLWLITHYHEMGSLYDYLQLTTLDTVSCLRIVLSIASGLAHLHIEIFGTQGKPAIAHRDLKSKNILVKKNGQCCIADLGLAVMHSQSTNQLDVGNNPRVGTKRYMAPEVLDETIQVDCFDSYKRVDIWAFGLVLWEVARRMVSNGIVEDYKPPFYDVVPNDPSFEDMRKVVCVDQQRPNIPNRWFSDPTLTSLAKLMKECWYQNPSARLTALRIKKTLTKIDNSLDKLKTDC

For the test, the target named is ALK2 (Homo sapiens (Human), UniProt Q04771). Briefly: ALK2 inhibition, LanthaScreen Eu Kinase Binding Assay (ThermoFisher Scientific / Life Technologies). The note with it: read-out: Measured Ki (IC50) Value for Compounds: IC50. As for the experimental part:
Biochemical assays to measure the inhibitory effects of the compounds were performed by ThermoFisher Scientific (Life Technologies). ALK2 inhibition was tested using LanthaScreen™ Eu Kinase Binding Assay screening protocol.
By IC50 is commonly meant the concentration that inhibits the measured activity by half. `Cn1cnc(-n2cnc(Nc3nc(N4CCC[C@H]4CO)nn4cccc34)c2)c1` [Compound 82a, (S)-(1-(4-((1′-methyl-1′H-[1,4′-biimidazol]-4-yl)amino)pyrrolo[2,1-f][1,2,4]triazin-2-yl)pyrrolidin-2-yl)methanol]: the 50% inhibitory concentration (IC50) was under 100 nM.

On to `OC[C@@H]1CCCN1c1cc(F)cc(-n2cnc(Nc3nc(N4CCC[C@H]4CO)nn4cccc34)c2)c1` [Compound 83c, ((S)-1-(4-((1-(3-fluoro-5-((S)-2-(hydroxymethyl)pyrrolidin-1-yl)phenyl)-1H-imidazol-4-yl)amino)pyrrolo[2,1-f][1,2,4]triazin-2-yl)pyrrolidin-2-yl)methanol], for which the IC50 is under 100 nM.

For the molecule `COc1cc(-n2cnc(Nc3nc(N4CCC[C@H]4CO)nc4sccc34)c2)cc(OC)c1OC` [Compound 84b, (S)-(1-(4-((1-(3,4,5-trimethoxyphenyl)-1H-imidazol-4-yl)amino)thieno[2,3-d]pyrimidin-2-yl)pyrrolidin-2-yl)methanol], the half-maximal inhibitory concentration (IC50) is under 100 nM.

Turning to `COc1cc(-n2cnc(Nc3nc(N4CCC[C@H]4CO)nn4c(Br)ccc34)c2)cc(OC)c1OC` [Compound 85b, (S)-(1-(7-bromo-4-(1-(3,4,5-trimethoxyphenyl)-1H-imidazol-4-ylamino)pyrrolo[1,2-f][1,2,4]triazin-2-yl)pyrrolidin-2-yl)methanol], the IC50 was under 100 nM.

On to `COc1cc(-n2cnc(Nc3nc(N4CCC[C@H]4CO)nc4ccccc34)c2)cc(OC)c1OC` [Compound 86b, (S)-(1-(4-((1-(3,4,5-trimethoxyphenyl)-1H-imidazol-4-yl)amino)quinazolin-2-yl)pyrrolidin-2-yl)methanol], for which the half-maximal inhibitory concentration (IC50) is under 100 nM.

For the molecule `OC[C@@H]1CCCN1c1nc(Nc2cn(-c3ccccc3)cn2)c2scc(Br)c2n1` [Compound 87c, (S)-(1-(7-bromo-4-((1-phenyl-1H-imidazol-4-yl)amino)thieno[3,2-d]pyrimidin-2-yl)pyrrolidin-2-yl)methanol], the IC50 was 100 to 1000 nM.

In the case of `COc1ccc(-c2nc(Nc3cn(-c4cc(OC)c(OC)c(OC)c4)cn3)c3cccn3n2)cc1` [Compound 88a, 2-(4-methoxyphenyl)-N-(1-(3,4,5-trimethoxyphenyl)-1H-imidazol-4-yl)pyrrolo[2,1-f][1,2,4]triazin-4-amine], the IC50 was under 100 nM.

Turning to `COc1ccc(-c2csc3c(Nc4cn(-c5ccccc5)cn4)nc(N4CCC[C@H]4CO)nc23)cc1` [Compound 89a, (S)-(1-(7-(4-methoxyphenyl)-4-(1-phenyl-1H-imidazol-4-ylamino)thieno[3,2-d]pyrimidin-2-yl)pyrrolidin-2-yl)methanol], the IC50 was in the range of 100 to 1000 nM.

On to `COc1ccc(-c2ccc3c(Nc4cn(-c5cc(OC)c(OC)c(OC)c5)cn4)nc(N4CCC[C@H]4CO)nn23)cc1` [Compound 90a, (S)-(1-(7-(4-methoxyphenyl)-4-(1-(3,4,5-trimethoxyphenyl)-1H-imidazol-4-ylamino)pyrrolo[1,2-f][1,2,4]triazin-2-yl)pyrrolidin-2-yl)methanol], for which the IC50 was under 100 nM.

As for `COc1cc(-n2cnc(Nc3nc(N4CCC[C@H]4C(N)=O)nn4cccc34)c2)cc(OC)c1OC` [Compound 91a, (S)-1-(4-(1-(3,4,5-trimethoxyphenyl)-1H-imidazol-4-ylamino)pyrrolo[1,2-f][1,2,4]triazin-2-yl)pyrrolidine-2-carboxamide], the half-inhibitory concentration (IC50) is under 100 nM.

In the case of `COc1cc(-n2cnc(Nc3nc(N4CCC[C@H]4CO)nc4sc(C(=O)OCC(C)C)cc34)c2)cc(OC)c1OC` [Compound 92d, (S)-isobutyl 2-(2-(hydroxymethyl)pyrrolidin-1-yl)-4-((1-(3,4,5-trimethoxyphenyl)-1H-imidazol-4-yl)amino)thieno[2,3-d]pyrimidine-6-carboxylate], the IC50 is 100 to 1000 nM.

For the molecule `NC(=O)c1ccc(-n2cnc(Nc3nc(N4CCC[C@H]4CO)nn4cccc34)c2)cc1` [Compound 93c, (S)-4-(4-(2-(2-(hydroxymethyl)pyrrolidin-1-yl)pyrrolo[1,2-f][1,2,4]triazin-4-ylamino)-1H-imidazol-1-yl)benzamide], the IC50 is under 100 nM.

Take `NC(=O)c1cccc(-n2cnc(Nc3nc(N4CCC[C@H]4CO)nn4cccc34)c2)c1` [Compound 94c, (S)-3-(4-(2-(2-(hydroxymethyl)pyrrolidin-1-yl)pyrrolo[1,2-f][1,2,4]triazin-4-ylamino)-1H-imidazol-1-yl)benzamide]: the half-maximal inhibitory concentration (IC50) is under 100 nM.

For the molecule `CC(=O)c1ccc(-n2cnc(Nc3nc(N4CCC[C@H]4CO)nn4cccc34)c2)cc1` [Compound 95c, (S)-1-(4-(4-(2-(2-(hydroxymethyl)pyrrolidin-1-yl)pyrrolo[1,2-f][1,2,4]triazin-4-ylamino)-1H-imidazol-1-yl)phenyl)ethanone], the IC50 was under 100 nM.

Take `COc1cc(-n2cnc(Nc3nc(N4CCC[C@H]4CO)c4cccn4n3)c2)cc(OC)c1OC` [Compound 96b, (S)-(1-(2-((1-(3,4,5-trimethoxyphenyl)-1H-imidazol-4-yl)amino)pyrrolo[2,1-f][1,2,4]triazin-4-yl)pyrrolidin-2-yl)methanol]: the IC50 was under 100 nM.

As to `COc1cc(-n2cnc(Nc3nc(N4CCC[C@H]4CO)nc4sc(CN5CCOCC5)cc34)c2)cc(OC)c1OC` [Compound 97d, (S)-(1-(6-(morpholinomethyl)-4-((1-(3,4,5-trimethoxyphenyl)-1H-imidazol-4-yl)amino)thieno[2,3-d]pyrimidin-2-yl)pyrrolidin-2-yl)methanol], the IC50 is under 100 nM.

Take `COc1cc(-n2cnc(Nc3nc(N4CCC[C@H]4CO)nn4c(C5=CCN(C(=O)OC(C)(C)C)CC5)ccc34)c2)cc(OC)c1OC` [Compound 98a, (S)-tert-butyl 4-(2-(2-(hydroxymethyl)pyrrolidin-1-yl)-4-(1-(3,4,5-trimethoxyphenyl)-1H-imidazol-4-ylamino)pyrrolo[1,2-f][1,2,4]triazin-7-yl)-5,6-dihydropyridine-1(2H)-carboxylate]: the IC50 was under 100 nM.

As for `COc1cc(-n2cnc(Nc3nc(N4CCC[C@H]4CO)nn4c(C(C)O)ccc34)c2)cc(OC)c1OC` (stereo partly drawn) [Compound 99b, 1-(2-((S)-2-(hydroxymethyl)pyrrolidin-1-yl)-4-((1-(3,4,5-trimethoxyphenyl)-1H-imidazol-4-yl)amino)pyrrolo[2,1-f][1,2,4]triazin-7-yl)ethanol], the IC50 was under 100 nM.

Consider `COc1cc(-n2cnc(Nc3nc(N4CCC[C@H]4CO)nn4c(CO)ccc34)c2)cc(OC)c1OC` [Compound 101c, (S)-(1-(7-(hydroxymethyl)-4-((1-(3,4,5-trimethoxyphenyl)-1H-imidazol-4-yl)amino)pyrrolo[2,1-f][1,2,4]triazin-2-yl)pyrrolidin-2-yl)methanol], for which the concentration for half-maximal inhibition (IC50) was under 100 nM.

Take `COc1cc(-n2cnc(Nc3nc(N4CCC[C@H]4CO)nc4sc(CN5CCC(O)CC5)cc34)c2)cc(OC)c1OC` [Compound 102b, (S)-1-((2-(2-(hydroxymethyl)pyrrolidin-1-yl)-4-((1-(3,4,5-trimethoxyphenyl)-1H-imidazol-4-yl)amino)thieno[2,3-d]pyrimidin-6-yl)methyl)piperidin-4-ol]: the half-inhibitory concentration (IC50) was under 100 nM.

Consider `COc1cc(-n2cnc(Nc3nc(N4CCC[C@H]4CO)nc4ccoc34)c2)cc(OC)c1OC` [Compound 103b, (S)-(1-(4-((1-(3,4,5-trimethoxyphenyl)-1H-imidazol-4-yl)amino)furo[3,2-d]pyrimidin-2-yl)pyrrolidin-2-yl)methanol], for which the IC50 is under 100 nM.

As for `COc1cc(-n2cnc(Nc3nc(N4CCC[C@H]4CO)nc4sc(CN5CCN(C)CC5)cc34)c2)cc(OC)c1OC` [Compound 104b, (S)-(1-(6-((4-methylpiperazin-1-yl)methyl)-4-((1-(3,4,5-trimethoxyphenyl)-1H-imidazol-4-yl)amino)thieno[2,3-d]pyrimidin-2-yl)pyrrolidin-2-yl)methanol], the IC50 is under 100 nM.

`COc1cc(-n2cnc(Nc3nc(N4CCC[C@H]4CO)nn4c(CN5CCCCC5)ccc34)c2)cc(OC)c1OC` [Compound 105b, (S)-(1-(7-(piperidin-1-ylmethyl)-4-((1-(3,4,5-trimethoxyphenyl)-1H-imidazol-4-yl)amino)pyrrolo[2,1-f][1,2,4]triazin-2-yl)pyrrolidin-2-yl)methanol]: the IC50 is under 100 nM.

For the molecule `COc1cc(-n2cnc(Nc3nc(N4CCC[C@H]4CO)nn4c(CN5CCN(C6CC6)CC5)ccc34)c2)cc(OC)c1OC` [Compound 106b, (S)-(1-(7-((4-cyclopropylpiperazin-1-yl)methyl)-4-((1-(3,4,5-trimethoxyphenyl)-1H-imidazol-4-yl)amino)pyrrolo[2,1-f][1,2,4]triazin-2-yl)pyrrolidin-2-yl)methanol], the 50% inhibitory concentration (IC50) was under 100 nM.

With `COc1cc(-n2cnc(Nc3nc(N4CCC[C@H]4CO)nn4c(C5=CCNCC5)ccc34)c2)cc(OC)c1OC` [Compound 107a, (S)-(1-(7-(1,2,3,6-tetrahydropyridin-4-yl)-4-(1-(3,4,5-trimethoxyphenyl)-1H-imidazol-4-ylamino)pyrrolo[1,2-f][1,2,4]triazin-2-yl)pyrrolidin-2-yl)methanol], the half-inhibitory concentration (IC50) is under 100 nM.

As to `COc1cc(-n2cnc(Nc3nc(N4CCC[C@H]4CO)nc4sc(CN5CCN(c6ccccn6)CC5)cc34)c2)cc(OC)c1OC` [Compound 108b, (S)-(1-(6-((4-(pyridin-2-yl)piperazin-1-yl)methyl)-4-((1-(3,4,5-trimethoxyphenyl)-1H-imidazol-4-yl)amino)thieno[2,3-d]pyrimidin-2-yl)pyrrolidin-2-yl)methanol], the 50% inhibitory concentration (IC50) was under 100 nM.

As to `COc1cc(-n2cnc(Nc3nc(-c4cccc(C=O)c4)nc4sc(CO)cc34)c2)cc(OC)c1OC` [Compound 109a, 3-(6-(hydroxymethyl)-4-((1-(3,4,5-trimethoxyphenyl)-1H-imidazol-4-yl)amino)thieno[2,3-d]pyrimidin-2-yl)benzaldehyde], the half-maximal inhibitory concentration (IC50) is under 100 nM.

For the molecule `COc1cc(-n2cnc(Nc3nc(-c4cccc(C=O)c4)nn4cccc34)c2)cc(OC)c1OC` [Compound 110a, 3-(4-((1-(3,4,5-trimethoxyphenyl)-1H-imidazol-4-yl)amino)pyrrolo[2,1-f][1,2,4]triazin-2-yl)benzaldehyde], the IC50 was under 100 nM.
